From US9682965B2, “Fumagillol heterocyclic compounds and methods of making and using same” (Zafgen, Inc., priority 2015, dated 2017) come the findings set out here.

The test system of test [1] is Diet Induced Obese (DIO) C57BL/6 mice. The experiment in a line: 10 day DIO mouse model (body weight, food intake, hematology, blood chemistry). Format: in vivo. To be noted: 240 h, DIO mouse, once a day for 10 days, read-out: DIO Mouse 10-day weight loss vs vehicle; for inhibition in vivo at 0.3 mg/kg: 0.3 mpk sc. The method in brief: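 DIO C57BL/6 mice on 60% kcal fat diet received compounds subcutaneously once daily for 10 days at 1.0, 0.5, 0.3, 0.1 or 0.03 mpk, in 10% DMSO in water, after 3-day vehicle acclimation. Body weight and food intake were recorded daily. Hematology and blood chemistry were taken on Day 11, 24 h post-final dose.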

The subject of test [2] is Male Sprague Dawley rats on high fat diet. The experiment in a line: 11 day rat DIO model (body weight, food intake, hematology, blood chemistries). The class given is in vivo. Particulars: 264 h, DIO rat, once a day for 11 days, read-out: DIO Rat 11-day weight loss vs vehicle; for inhibition in vivo at 0.3 mg/kg: 0.3 mpk sc; for inhibition in vivo at 1 mg/kg: 1.0 mpk sc. From the text:
The objective of this study design is to investigate the efficacy of disclosed compounds in an 11 day rat DIO model used to screen compounds for pharmacologic efficacy on endpoints related to obesity and metabolism. Effects on body weight, food intake, hematology and blood chemistries were the primary readouts of this study design. […] Rats were fed Research Diets D12451 (45% High Fat) and provided water ad libitum. Rats were received and housed in the facility for at least two or three weeks prior to start of test article administration. On Day −4 or −3, rats were randomized into study groups based on body weight and body weights were continued to be recorded daily for the duration of the study. Daily food intake was assessed starting on Study Day −2 by weighing the hopper including the food to avoid loss of food in transfer.
Compounds were formulated into a 100% DMSO stock (at 9 mg/mL) prior to the start, and further diluted into the target working concentration using the vehicle of 10% DMSO in water. Prior to test article administration, starting on Day −3 a dosing acclimation occured with all animals receiving a subcutaneous injection of vehicle (10% DMSO) only for 3 days. Starting on Day 1, test compounds or vehicle were administered based on individual body weight, subcutaneously, once a day for 11 days. All animals were sacrificed on Day 11, approximately 2 hours following the final dosing on Day 11. After sacrifice, whole blood was collected and analyzed for hematology and blood chemistry parameters.
Compounds were tested vs. vehicle at various doses (1.0, 0.5, 0.3, 0.1, 0.03 mpk sc (mg per kg animal weight delivered subcutaneously), and the results are shown in Table 2 below.

Where a name gives a salt, the structure may show the parent alone.

For `CCN(CC)C[C@H]1CCN1C(=O)O[C@@H]1CC[C@]2(CO2)[C@@H]([C@@]2(C)O[C@@H]2CC=C(C)C)[C@@H]1OC` [Example 43, (R)-((3R,4S,5S,6R)-5-methoxy-4-((2R,3R)-2-methyl-3-(3-methylbut-2-enyl)oxiran-2-yl)-1-oxaspiro[2.5]octan-6-yl) 2-((diethylamino)methyl)azetidine-1-carboxylate formate], in test [1], the inhibition in vivo at 0.3 mg/kg worked out at 2.7%. Moreover, in test [2], the inhibition in vivo at 0.3 mg/kg was determined as 0.35% and the inhibition in vivo at 1 mg/kg was determined as 2.9%.
For `CO[C@@H]1[C@H](OC(=O)N2CC(CCN3CCC(F)(F)C3)C2)CC[C@]2(CO2)[C@H]1[C@@]1(C)O[C@@H]1CC=C(C)C` [Example 45, (3R,4S,5S,6R)-5-methoxy-4-((2R,3R)-2-methyl-3-(3-methylbut-2-enyl)oxiran-2-yl)-1-oxaspiro[2.5]octan-6-yl 3-(2-(3,3-difluoropyrrolidin-1-yl)ethyl)azetidine-1-carboxylate], the inhibition in vivo at 0.3 mg/kg in test [1] turned out to be 16.8%; in test [2], 5.2%.
For the molecule `CCN(CC)C[C@@H]1CCCN1C(=O)O[C@@H]1CC[C@]2(CO2)[C@@H]([C@@]2(C)O[C@@H]2CC=C(C)C)[C@@H]1OC` [Example 48, (S)-((3R,4S,5S,6R)-5-methoxy-4-((2R,3R)-2-methyl-3-(3-methylbut-2-enyl)oxiran-2-yl)-1-oxaspiro[2.5]octan-6-yl) 2-((diethylamino)methyl)pyrrolidine-1-carboxylate formate], the results for the inhibition in vivo at 0.3 mg/kg in test [1] and in test [2] were 7.2% and 0.65%, respectively. Moreover, the inhibition in vivo at 1 mg/kg in test [2] stood at 7.88%.
With `CO[C@@H]1[C@H](OC(=O)N2CC[C@H](CCN3CCOCC3)C2)CC[C@]2(CO2)[C@H]1[C@@]1(C)O[C@@H]1CC=C(C)C` [Example 54, (S)-((3R,4S,5S,6R)-5-methoxy-4-((2R,3R)-2-methyl-3-(3-methylbut-2-enyl)oxiran-2-yl)-1-oxaspiro[2.5]octan-6-yl) 3-(2-morpholinoethyl)pyrrolidine-1-carboxylate], the inhibition in vivo at 0.3 mg/kg in test [1] came out at 16.4%; in test [2], 7.3%.
Regarding `CO[C@@H]1[C@H](OC(=O)N2CC[C@@H](CCN3CCOCC3)C2)CC[C@]2(CO2)[C@H]1[C@@]1(C)O[C@@H]1CC=C(C)C` [Example 55, (R)-(3R,4S,5S,6R)-5-methoxy-4-((2R,3R)-2-methyl-3-(3-methylbut-2-en-1-yl)oxiran-2-yl)-1-oxaspiro[2.5]octan-6-yl 3-(2-morpholinoethyl)pyrrolidine-1-carboxylate], the inhibition in vivo at 0.3 mg/kg in test [1] stood at 12.2%; in test [2], 7.5%.
Consider `CCN(CC)C[C@H]1CCCN1C(=O)O[C@@H]1CC[C@]2(CO2)[C@@H]([C@@]2(C)O[C@@H]2CC=C(C)C)[C@@H]1OC` [Example 60, (R)-((3R,4S,5S,6R)-5-methoxy-4-((2R,3R)-2-methyl-3-(3-methylbut-2-enyl)oxiran-2-yl)-1-oxaspiro[2.5]octan-6-yl) 2-((diethylamino)methyl)pyrrolidine-1-carboxylate formate], for which the inhibition in vivo at 0.3 mg/kg in test [1] was determined as 6.3%. Further, in test [2], the inhibition in vivo at 0.3 mg/kg is 1.95% and the inhibition in vivo at 1 mg/kg came out at 7.79%.
In the case of `CNC(=O)OCC1CN(C(=O)O[C@@H]2CC[C@]3(CO3)[C@@H]([C@@]3(C)O[C@@H]3CC=C(C)C)[C@@H]2OC)C1` [Example 69, (3R,4S,5S,6R)-5-methoxy-4-((2R,3R)-2-methyl-3-(3-methylbut-2-enyl)oxiran-2-yl)-1-oxaspiro[2.5]octan-6-yl 3-((methylcarbamoyloxy)methyl)azetidine-1-carboxylate], the inhibition in vivo at 0.3 mg/kg in test [1] was determined as 12.7%; in test [2] it was 2.1%.
Regarding `CO[C@@H]1[C@H](OC(=O)N2CC(OC(=O)N3CCOCC3)C2)CC[C@]2(CO2)[C@H]1[C@@]1(C)O[C@@H]1CC=C(C)C` [Example 71, 1-(((3R,4S,5S,6R)-5-methoxy-4-((2R,3R)-2-methyl-3-(3-methylbut-2-enyl)oxiran-2-yl)-1-oxaspiro[2.5]octan-6-yloxy)carbonyl)azetidin-3-yl morpholine-4-carboxylate formate], the inhibition in vivo at 0.3 mg/kg in test [1] is 8.9%. Moreover, in test [2], the inhibition in vivo at 0.3 mg/kg is 10.3% and the inhibition in vivo at 1 mg/kg came to 10.3%.
As for `CO[C@@H]1[C@H](OC(=O)N2CC(OC(=O)N3CCN(CC(F)F)CC3)C2)CC[C@]2(CO2)[C@H]1[C@@]1(C)O[C@@H]1CC=C(C)C` [Example 80, 1-(((3R,4S,5S,6R)-5-methoxy-4-((2R,3R)-2-methyl-3-(3-methylbut-2-enyl)oxiran-2-yl)-1-oxaspiro[2.5]octan-6-yloxy)carbonyl)azetidin-3-yl 4-(2,2-difluoroethyl)piperazine-1-carboxylate], the values for the inhibition in vivo at 0.3 mg/kg in test [1] and in test [2] were 16.5% and 7.3%, respectively.
Turning to `CO[C@@H]1[C@H](OC(=O)N2CC(CCC3CCN(CC(F)F)CC3)C2)CC[C@]2(CO2)[C@H]1[C@@]1(C)O[C@@H]1CC=C(C)C` [Example 91, (3R,4S,5S,6R)-5-methoxy-4-((2R,3R)-2-methyl-3-(3-methylbut-2-enyl)oxiran-2-yl)-1-oxaspiro[2.5]octan-6-yl 3-(2-(1-(2,2-difluoroethyl)piperidin-4-yl)ethyl)azetidine-1-carboxylate formate], the inhibition in vivo at 0.3 mg/kg in test [1] was 29.7%; in test [2], 17.2%.
In the same order, the values of `CO[C@@H]1[C@H](OC(=O)N2CC(CN3CCOCC3)C2)CC[C@]2(CO2)[C@H]1[C@@]1(C)O[C@@H]1CC=C(C)C` [Example 95, (3R,4S,5S,6R)-5-methoxy-4-((2R,3R)-2-methyl-3-(3-methylbut-2-enyl)oxiran-2-yl)-1-oxaspiro[2.5]octan-6-yl 3-(morpholinomethyl)azetidine-1-carboxylate] are 14.7% and 3%.
The like results for `CO[C@@H]1[C@H](OC(=O)N2CC(Nc3ccccn3)C2)CC[C@]2(CO2)[C@H]1[C@@]1(C)O[C@@H]1CC=C(C)C` [Example 98, (3R,4S,5S,6R)-5-methoxy-4-((2R,3R)-2-methyl-3-(3-methylbut-2-enyl)oxiran-2-yl)-1-oxaspiro[2.5]octan-6-yl 3-(pyridin-2-ylamino)azetidine-1-carboxylate] were, in that order, 12.6% and 1.2%.
In the same order, the values of `CO[C@@H]1[C@H](OC(=O)N2CC(Cc3ccccn3)C2)CC[C@]2(CO2)[C@H]1[C@@]1(C)O[C@@H]1CC=C(C)C` [Example 100, (3R,4S,5S,6R)-5-methoxy-4-((2R,3R)-2-methyl-3-(3-methylbut-2-en-1-yl)oxiran-2-yl)-1-oxaspiro[2.5]octan-6-yl 3-(pyridin-2-ylmethyl)azetidine-1-carboxylate] are 9.8% and 5.5%.
On to `CCN(CC)CCC1CCN1C(=O)O[C@@H]1CC[C@]2(CO2)[C@@H]([C@@]2(C)O[C@@H]2CC=C(C)C)[C@@H]1OC` (stereo partly drawn) [Example 106, (3R,4S,5S,6R)-5-methoxy-4-((2R,3R)-2-methyl-3-(3-methylbut-2-enyl)oxiran-2-yl)-1-oxaspiro[2.5]octan-6-yl 2-(2-(diethylamino)ethyl)azetidine-1-carboxylate], for which the inhibition in vivo at 0.1 mg/kg in test [1] (Mus musculus, sc, 0.1 mpk sc) was found to be 2%. In test [2] (0.5 mpk sc), the inhibition in vivo at 0.5 mg/kg turned out to be 4.82%.
`CO[C@@H]1[C@H](OC(=O)N2CC(CCN3CC(F)(F)C3)C2)CC[C@]2(CO2)[C@H]1[C@@]1(C)O[C@@H]1CCC(C)C` [Example 126, (3R,4S,5S,6R)-4-((2R,3R)-3-isopentyl-2-methyloxiran-2-yl)-5-methoxy-1-oxaspiro[2.5]octan-6-yl3-(2-(3,3-difluoroazetidin-1-yl)ethyl)azetidine-1-carboxylate]: the inhibition in vivo at 0.3 mg/kg in test [1] is 13.2%. Moreover, in test [2], the inhibition in vivo at 0.3 mg/kg came out at 7.4% and the inhibition in vivo at 1 mg/kg came to 9.1%.
The like results for `CO[C@@H]1[C@H](OC(=O)N2CC(CCN3CCOCC3)C2)CC[C@]2(CO2)[C@H]1[C@@]1(C)O[C@@H]1CCC(C)C` [Example 127, (3R,4S,5S,6R)-4-((2R,3R)-3-isopentyl-2-methyloxiran-2-yl)-5-methoxy-1-oxaspiro[2.5]octan-6-yl 3-(2-morpholinoethyl)azetidine-1-carboxylate] were, in that order, 15.2%, 6.1% and 10.7%.
